{
  "source": "patent US20100113584A1",
  "about": "“NOVEL USE OF (-)-EPIGALLOCATECHIN GALLATE” (priority 2007, published 2010)",
  "key": {"[1]": {"tested_on": "skeletal muscle fibers of medial gastrocnemius muscle", "assay": "Fiber type quantification in medial gastrocnemius muscle (immune-histochemistry, cytochrome oxidase staining)", "type": "in vivo, mice", "details": "2 months", "description": "(§1) Male C57BL/6J mice (5 weeks old) were purchased from Charles River (Sulzfeld, Germany). All mice initially received a high-fat diet (Kliba#2154, Provimi Kliba AG, Kaiseraugst, Switzerland) for 3 months. Thereafter, mice were randomly assigned to 5 groups. • Group 1: Low-fat diet, restricted to cage normal activity (Low fat sedentary, n=11) • Group 2: High-fat diet, restricted to cage normal activity (High fat sedentary, n=11) • Group 3: High-fat diet containing 0.5% w/w EGCG, restricted to cage normal activity (High fat+EGCG sedentary, n=10) • Group 4: High-fat diet, free access to running wheel (High fat exercise, n=10) • Group 5: High-fat diet containing 0.5% w/w EGCG, free access to running wheel (High fat+EGCG exercise, n=10) The duration of the treatment was 2 months. During this period all mice received food and water ad libitum. Mice in groups 4 and 5 had unlimited access to running wheels (Technical & Scientific Equipment GmbH, Bad Homburg, Germany). Daily voluntary running wheel activity was monitored. At the end of the treatment period, maximal running performance on a rodent treadmill (Technical & Scientific Equipment GmbH, Bad Homburg, Germany) was determined. The Gastrocnemius muscles were excised, frozen in liquid nitrogen and stored at −80° C. for later quantification of the fiber type. In the medial gastrocnemius, skeletal muscle fibers were quantified as Type I, Type IIA, Type D/X, Type IIB by immune-histochemistry utilizing fiber specific antibodies and by histochemistry using a cytochrome oxidase staining."}, "C57BL/6J mice": {"tested_on": "C57BL/6J mice", "assay": "Daily voluntary running wheel activity of mice on high-fat diet", "type": "in vivo", "details": "male C57BL/6J mice, high-fat diet containing 0.5% w/w EGCG, free access to running wheel, 2 months; P<0.004 vs high-fat diet alone", "description": "as §1, with “During this period all mice received food and water ad libitum. Mice in groups 4 and 5 had unlimited access to running wheels (Technical & Scientific Equipment GmbH, Bad Homburg, Germany).” left out"}, "[2]": {"details": "High fat + EGCG (0.5% w/w) exercise (running wheel)"}, "[3]": {"details": "High fat + EGCG (0.5% w/w) sedentary"}},
  "data": [
    {"substance": "(−)-epigallocatechin gallate [EGCG]", "values": [
      {"measurement": "Percentage of Type I fibers in medial gastrocnemius muscle", "setting": "[1]; [2]", "value": 12.8, "unit": "%"},
      {"measurement": "Percentage of Type IIa fibers in medial gastrocnemius muscle", "setting": "[1]; [2]", "value": 54.2, "unit": "%"},
      {"measurement": "Percentage of Type IIb fibers in medial gastrocnemius muscle", "setting": "[1]; [2]", "value": 27.8, "unit": "%"},
      {"measurement": "Percentage of Type IId/x fibers in medial gastrocnemius muscle", "setting": "[1]; [2]", "value": 5.1, "unit": "%"},
      {"measurement": "Percentage of Type I fibers in medial gastrocnemius muscle", "setting": "[1]; [3]", "value": 12.5, "unit": "%"},
      {"measurement": "Percentage of Type IIa fibers in medial gastrocnemius muscle", "setting": "[1]; [3]", "value": 53.5, "unit": "%"},
      {"measurement": "Percentage of Type IIb fibers in medial gastrocnemius muscle", "setting": "[1]; [3]", "value": 28.8, "unit": "%"},
      {"measurement": "Percentage of Type IId/x fibers in medial gastrocnemius muscle", "setting": "[1]; [3]", "value": 5.2, "unit": "%"},
      {"measurement": "voluntary running wheel activity, average distance run per day", "setting": "C57BL/6J mice", "value": "3140.3±43.3", "unit": "m per day"}
    ]}
  ]
}
